Format in all cases: in vitro ADME
The target of one data set is T1, UGT2B7 (Homo sapiens, UniProt P16662).
T1 construct: tissue Corning Life Sciences; host or cells: pooled human liver microsomes (150 donors)
T1 sequence (P16662 24-529): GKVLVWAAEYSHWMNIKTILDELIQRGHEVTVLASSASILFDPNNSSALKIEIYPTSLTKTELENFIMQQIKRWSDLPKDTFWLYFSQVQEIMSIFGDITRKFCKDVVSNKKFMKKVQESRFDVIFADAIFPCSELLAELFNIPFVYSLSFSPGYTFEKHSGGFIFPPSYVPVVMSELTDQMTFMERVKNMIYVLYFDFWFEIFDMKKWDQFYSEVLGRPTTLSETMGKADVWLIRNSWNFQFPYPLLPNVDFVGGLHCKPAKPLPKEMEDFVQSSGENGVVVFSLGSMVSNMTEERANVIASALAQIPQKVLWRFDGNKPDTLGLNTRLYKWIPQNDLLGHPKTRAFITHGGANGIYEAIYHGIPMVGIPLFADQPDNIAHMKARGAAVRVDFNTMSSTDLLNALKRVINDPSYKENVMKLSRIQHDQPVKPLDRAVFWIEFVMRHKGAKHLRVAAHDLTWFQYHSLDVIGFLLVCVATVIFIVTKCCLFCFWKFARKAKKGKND
The data set can be described thus: UGT2B7 naloxone 3-β-D-glucuronidation inhibition in human liver microsomes. How it is done: After 3 min of pre-incubation at 37 °C, the reactions were initiated by addition of UDPGA; incubation continued for 60 min at 37 °C in a shaking water bath. The reaction was stopped by placing the tubes on ice and adding 50 µL ice-cold acetonitrile containing internal standards (propofol glucuronide for chenodeoxycholic acid 24-acyl-β-glucuronide and mycophenolic acid glucuronide, and meloxicam for SN-38 glucuronide, trifluoperazine glucuronide, N-acetylserotonin β-D-glucuronide, and naloxone 3-β-D-glucuronide). The incubation mixtures were centrifuged (13,000× g, 4 min, 4 °C). All assays were performed in triplicate and average values were used in calculations.
The reactions were initiated by addition of UDPGA at 37 °C and stopped after 60 min by placing the incubation tubes on ice and adding 100 μL of ice-cold methanol containing propofol glucuronide (internal standard for UGT1A3) or meloxicam (internal standard for UGT2B7). The incubation mixtures were centrifuged (13,000× g, 4 min, 4 °C), and then, 50 μL of the supernatant was diluted with 50 μL of water. Aliquots (5 μL) of the diluted supernatants were analyzed by LC-MS/MS.
The metabolites formed from the six UGT cocktail substrates were measured simultaneously using the LC-MS/MS method. The ESI source settings in both positive- and negative-ion modes for metabolite ionization were: capillary voltage, 4200 V; vaporizer temperature, 350 °C; capillary temperature, 330 °C; sheath gas pressure, 35 psi; and auxiliary gas pressure, 15 psi. […] Data were processed using Xcalibur software.
(§1) The apparent kinetic parameters for inhibitory potential (Ki and kinact values) and inhibition mode were estimated from the fitted curves using the Enzyme Kinetics program (ver. 1.1; Systat Software Inc., San Jose, CA, USA).
Background: Liver microsomes are a subcellular fraction often used to study metabolism.

The target of a further data set is T2, CYP1A2 (Homo sapiens, UniProt P05177).
T2 construct: pooled human liver microsomes (0.2 mg/mL); tissue Corning Life Sciences; host or cells: pooled human liver microsomes (150 donors)
T2 sequence (P05177 1-516): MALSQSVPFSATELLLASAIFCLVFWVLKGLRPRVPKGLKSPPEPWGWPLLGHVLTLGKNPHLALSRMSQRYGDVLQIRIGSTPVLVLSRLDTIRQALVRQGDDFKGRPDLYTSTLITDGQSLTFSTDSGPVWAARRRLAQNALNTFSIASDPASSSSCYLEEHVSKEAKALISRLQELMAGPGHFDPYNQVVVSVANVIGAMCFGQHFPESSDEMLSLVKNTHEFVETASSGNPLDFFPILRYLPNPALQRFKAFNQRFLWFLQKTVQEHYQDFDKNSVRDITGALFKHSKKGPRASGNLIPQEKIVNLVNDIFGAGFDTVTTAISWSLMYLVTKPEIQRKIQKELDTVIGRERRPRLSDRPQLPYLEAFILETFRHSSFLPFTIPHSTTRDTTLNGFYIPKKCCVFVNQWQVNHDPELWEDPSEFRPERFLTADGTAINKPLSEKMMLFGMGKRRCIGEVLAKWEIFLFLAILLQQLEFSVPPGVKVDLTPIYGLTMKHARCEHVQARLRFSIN
The data set can be described thus: CYP1A2 phenacetin O-deethylase inhibition in pooled human liver microsomes (substrate cocktail, LC-MS/MS). To be noted: at 50 µM. As to the method: (§2) After a 3-min pre-incubation at 37 °C, the reactions were initiated by addition of NADPH and incubation proceeded for 15 min at 37 °C in a shaking water bath. […] The incubation mixtures were centrifuged (13,000× g, 4 min, 4 °C). All assays were performed in triplicate and mean values were used in calculations.
(§3) Each reaction was initiated by adding the seven-CYP probe substrate cocktail.
(§4) The metabolites formed from CYP substrates were quantified simultaneously by a LC-MS/MS method described previously. The ESI source settings in positive-ion mode for metabolite ionization were: capillary voltage, 4200 V; vaporizer temperature, 350 °C; capillary temperature, 330 °C; sheath gas pressure, 35 psi; and auxiliary gas pressure, 15 psi. […] Analytical data were processed using Xcalibur software (version 2.1, Thermo Scientific).
as §1

Another data set concerns the target T3, CYP2C19 (Homo sapiens, UniProt P33261).
T3 construct: pooled human liver microsomes (0.2 mg/mL); tissue Corning Life Sciences; host or cells: pooled human liver microsomes (150 donors)
Nature of the data set: CYP2C19 [S]-mephenytoin 4′-hydroxylase inhibition in human liver microsomes. To be noted: at 50 µM. As to the method: as §2, §3, §4, §1

T3 sequence (P33261 whole entry): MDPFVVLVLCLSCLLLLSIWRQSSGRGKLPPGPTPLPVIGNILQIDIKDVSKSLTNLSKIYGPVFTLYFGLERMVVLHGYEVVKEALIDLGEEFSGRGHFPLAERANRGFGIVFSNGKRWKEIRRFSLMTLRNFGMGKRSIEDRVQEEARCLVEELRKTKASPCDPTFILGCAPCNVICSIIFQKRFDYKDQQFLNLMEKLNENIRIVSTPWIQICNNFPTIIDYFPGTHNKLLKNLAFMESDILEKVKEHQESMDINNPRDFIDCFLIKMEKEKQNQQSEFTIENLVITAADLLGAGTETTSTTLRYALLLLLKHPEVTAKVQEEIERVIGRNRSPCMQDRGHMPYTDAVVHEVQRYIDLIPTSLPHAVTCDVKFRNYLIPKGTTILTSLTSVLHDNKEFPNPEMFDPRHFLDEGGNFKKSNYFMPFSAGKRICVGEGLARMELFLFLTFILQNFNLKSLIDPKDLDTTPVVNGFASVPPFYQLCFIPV

The term Ki denotes a dissociation constant, usually derived from enzyme kinetics or from competition with a known ligand. Low readings indicate a stronger hold on the target, high ones a looser hold on the target. In general, IC50 refers to the point on the concentration scale where inhibition reaches its midpoint. As to `O=C(c1cccc2ccccc12)c1cn(CCCCCF)c2ccccc12` [AM-2201, 1-(5-fluoropentyl-1H-indol-3-yl)-(naphthalene-1-yl)methanone], the affinity at UGT2B7, expressed as Ki, was 10 µM. The IC50 against UGT2B7 (IC50, UGT2B7-catalyzed naloxone 3-glucuronidation, abstract) was 10 µM; against UGT2B7 (IC50, UGT2B7 naloxone 3-β-D-glucuronidation, 1 μM naloxone, human liver microsomes), 14.5 µM. The Inhibition Mode result at UGT2B7 (UGT2B7 naloxone 3-β-D-glucuronidation) is “mixed inhibition”. Moreover, at CYP1A2, the “inhibition of CYP1A2-mediated phenacetin O-deethylation” value is recorded as “negligibly inhibited”. Besides, the “inhibition of CYP2C19-mediated [S]-mephenytoin 4′-hydroxylation” value against CYP2C19 is given as “negligibly inhibited”.

Values taken from publication PMC6155437 (Molecules : A Journal of Synthetic Chemistry and Natural …, 2017).
